Data as given in the supplement of paper PMC6045584.
± gives the standard deviation of the averaged measurements.

Assays:
[1] = compound: CS(=O)(=O)CCNCc1ccc(-c2ccc3ncnc(Nc4ccc(OCc5cccc(F)c5)c(Cl)c4)c3c2)o1 [LAPATINIB]; assay: surviving fraction relative to DMSO-only wells; higher = less growth inhibition; settings: exposure time: 5 days
Outline: (§1)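 Inhibitors were tested at 0.5, 1, 5, 10, 50, 100, 500 and 1000 nM, applied continuously for five days beginning 24 hours after log-phase tumour cells were seeded at 250–500 per well in 384-well plates. CellTiter-Glo luminescence served as the viability measure, expressed as surviving fraction against the median of DMSO-only wells. Each line, screened three times, was kept only with replicate Pearson r >0.7 and median Z' >0.3.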

[2] = compound: Oc1ccc(/C=C/c2cc(O)cc(O)c2)cc1 [RESVERATROL]; assay: as above; settings: exposure time: 5 days
Outline: as §1

| Test System | surviving fraction ([1]; 0.5 nM) | surviving fraction ([1]; 1 nM) | surviving fraction ([1]; 5 nM) | surviving fraction ([1]; 10 nM) | surviving fraction ([1]; 50 nM) | surviving fraction ([1]; 100 nM) | surviving fraction ([1]; 500 nM) | surviving fraction ([1]; 1000 nM) | surviving fraction ([2]; 0.5 nM) | surviving fraction ([2]; 1 nM) | surviving fraction ([2]; 5 nM) | surviving fraction ([2]; 10 nM) | surviving fraction ([2]; 50 nM) | surviving fraction ([2]; 100 nM) | surviving fraction ([2]; 500 nM) | surviving fraction ([2]; 1000 nM) |
| --- | --- | --- | --- | --- | --- | --- | --- | --- | --- | --- | --- | --- | --- | --- | --- | --- |
| SUM149 BREAST | 0.945 ± 0.078 | 0.988 ± 0.11 | 0.943 ± 0.043 | 0.889 ± 0.12 | 0.741 ± 0.046 | 0.656 ± 0.019 | 0.492 ± 0.018 | 0.424 ± 0.047 | 0.958 ± 0.048 | 1.02 ± 0.07 | 1.04 ± 0.082 | 0.958 ± 0.013 | 1.07 ± 0.048 | 0.989 ± 0.062 | 1.09 ± 0.034 | 1.09 ± 0.1 |
| SUM149.B1*.S BREAST | 1.08 ± 0.049 | 1.23 ± 0.033 | 1.12 ± 0.023 | 1.11 ± 0.026 | 0.995 ± 0.06 | 1.07 ± 0.057 | 1.09 ± 0.035 | 1.05 ± 0.038 | 1.05 ± 0.056 | 1.09 ± 0.041 | 1.08 ± 0.051 | 1.1 ± 0.061 | 1.02 ± 0.036 | 1.128 ± 0.0016 | 1.09 ± 0.043 | 1.14 ± 0.026 |
| SUM159 BREAST | 1.08 ± 0.022 | 1.13 ± 0.018 | 1.1 ± 0.037 | 1.07 ± 0.014 | 1.06 ± 0.029 | 1.1 ± 0.036 | 1.043 ± 0.01 | 1.03 ± 0.013 | 1.04 ± 0.028 | 1.1 ± 0.024 | 1.06 ± 0.03 | 1.06 ± 0.021 | 1.033 ± 0.0053 | 1.07 ± 0.016 | 1.08 ± 0.018 | 1.11 ± 0.017 |
| SYO1 SYNOVIAL | 0.992 ± 0.026 | 1.03 ± 0.08 | 0.976 ± 0.034 | 1.04 ± 0.041 | 0.938 ± 0.033 | 0.976 ± 0.032 | 0.966 ± 0.026 | 0.975 ± 0.021 | 0.975 ± 0.062 | 0.996 ± 0.027 | 0.996 ± 0.04 | 0.991 ± 0.044 | 0.974 ± 0.045 | 1.01 ± 0.038 | 0.987 ± 0.039 | 1.01 ± 0.051 |
| T47D BREAST | 1.01 ± 0.068 | 1.07 ± 0.036 | 1.08 ± 0.072 | 1.07 ± 0.05 | 1.01 ± 0.019 | 1.04 ± 0.05 | 1 ± 0.041 | 1.01 ± 0.017 | 1.06 ± 0.011 | 1.1 ± 0.036 | 1.11 ± 0.049 | 1.11 ± 0.017 | 0.997 ± 0.15 | 1.08 ± 0.08 | 1.02 ± 0.15 | 1.08 ± 0.16 |
| U2OS BONE | 1.03 ± 0.031 | 1.034 ± 0.0044 | 1.08 ± 0.014 | 1.08 ± 0.027 | 1.03 ± 0.012 | 1.04 ± 0.024 | 0.9533 ± 0.0085 | 0.938 ± 0.037 | 1.06 ± 0.018 | 1.04 ± 0.022 | 1.04 ± 0.029 | 1.06 ± 0.054 | 1.06 ± 0.031 | 1.08 ± 0.028 | 1.05 ± 0.033 | 1.05 ± 0.027 |
| VCAP PROSTATE | 0.835 ± 0.089 | 0.828 ± 0.047 | 0.889 ± 0.21 | 1.15 ± 0.049 | 0.957 ± 0.07 | 0.901 ± 0.1 | 0.839 ± 0.035 | 0.956 ± 0.073 | 1.02 ± 0.18 | 0.812 ± 0.12 | 0.994 ± 0.12 | 1.02 ± 0.13 | 0.901 ± 0.061 | 0.978 ± 0.017 | 0.88 ± 0.07 | 0.931 ± 0.18 |
| VP229 BREAST | 1.23 ± 0.14 | 1.21 ± 0.039 | 1.21 ± 0.15 | – | 1.04 ± 0.11 | 0.92 ± 0.058 | 0.626 ± 0.019 | 0.436 ± 0.087 | 1.19 ± 0.11 | 1.32 ± 0.14 | 1.19 ± 0.12 | 1.2 ± 0.17 | 1.09 ± 0.18 | 1.22 ± 0.095 | 1.23 ± 0.16 | 1.12 ± 0.19 |
| YAMATO SYNOVIAL | 1.22 ± 0.066 | 1.31 ± 0.15 | 1.23 ± 0.12 | 1.24 ± 0.077 | 1.25 ± 0.16 | 1.31 ± 0.022 | 1.21 ± 0.16 | 1.13 ± 0.045 | 1.21 ± 0.063 | 1.28 ± 0.1 | 1.34 ± 0.064 | 1.27 ± 0.18 | 1.32 ± 0.18 | 1.31 ± 0.099 | 1.25 ± 0.073 | 1.15 ± 0.15 |
| ZR751 BREAST | 0.879 ± 0.09 | 0.898 ± 0.17 | 1.01 ± 0.08 | 1.1 ± 0.23 | 0.816 ± 0.069 | 0.785 ± 0.031 | 0.662 ± 0.038 | 0.746 ± 0.062 | 0.956 ± 0.028 | 1.08 ± 0.069 | 0.95 ± 0.07 | 1.01 ± 0.037 | 1.01 ± 0.1 | 1.03 ± 0.1 | 0.957 ± 0.045 | 1.12 ± 0.088 |
